Experimental data taken from ChEMBL document CHEMBL1153413, “Pyranonaphthoquinone lactones: a new class of AKT selective kinase inhibitors alkylate a regulatory loop cysteine” (J Med Chem, 2009).
One block for each molecule: values may come before it. The source made the active and inactive calls. No cut-off for these calls is given here.

Assays:
[1] = Cytotoxicity against human MDA468 cells expressing AKT; format: functional, cell-based, MDA-MB-468; conditions: Homo sapiens, MDA-MB-468
[2] = molecular target: T1, RAC-alpha serine/threonine-protein kinase (Homo sapiens, UniProt P31749); assay: Inhibition of AKT
T1 sequence (P31749 whole entry): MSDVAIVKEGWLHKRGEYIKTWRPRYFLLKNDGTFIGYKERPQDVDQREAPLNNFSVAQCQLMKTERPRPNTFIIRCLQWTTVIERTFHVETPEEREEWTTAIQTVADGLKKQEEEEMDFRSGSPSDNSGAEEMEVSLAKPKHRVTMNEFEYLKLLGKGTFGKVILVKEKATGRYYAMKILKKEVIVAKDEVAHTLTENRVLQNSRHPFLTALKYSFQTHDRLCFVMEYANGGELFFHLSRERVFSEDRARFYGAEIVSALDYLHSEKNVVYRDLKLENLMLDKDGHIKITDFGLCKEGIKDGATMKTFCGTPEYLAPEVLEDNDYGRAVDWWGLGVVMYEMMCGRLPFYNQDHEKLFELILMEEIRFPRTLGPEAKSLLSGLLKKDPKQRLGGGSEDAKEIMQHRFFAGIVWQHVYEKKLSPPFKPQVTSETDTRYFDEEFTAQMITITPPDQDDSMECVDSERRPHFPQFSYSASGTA

[3] = molecular target: T1, RAC-alpha serine/threonine-protein kinase; assay: Inhibition of AKT at < 10 uM

SMILES: CCC[C@H]1O[C@@H]2CC(=O)O[C@@H]2C2=C1C(=O)c1c(OC)cccc1C2=O
IC50 [1]: 1110 nM | IC50 [2]: 497 nM

SMILES: O=C1C[C@H]2OCC3=C(C(=O)c4ccccc4C3=O)[C@H]2O1
IC50 [1]: 800 nM | IC50 [2]: 44 nM

SMILES: O=C1C[C@H]2O[C@H](c3cccs3)C3=C(C(=O)c4ccccc4C3=O)[C@H]2O1
IC50 [1]: 600 nM | IC50 [2]: 57 nM

SMILES: C[C@H]1O[C@@H]2CC(=O)O[C@@H]2C2=C1C(=O)c1ccccc1C2=O
IC50 [1]: 480 nM | IC50 [2]: 150 nM

SMILES: CCOC(=O)C[C@@H]1CC2=C(CO1)C(=O)c1ccccc1C2=O
Activity [3]: inactive

SMILES: CCC[C@H]1O[C@@H]2CC(=O)O[C@@H]2C2=C1C(=O)c1ccccc1C2=O (racemic)
IC50 [1]: 600 nM | IC50 [2]: 163 nM

SMILES: O=C1C[C@H]2O[C@H](COCc3ccccc3)C3=C(C(=O)c4ccccc4C3=O)[C@H]2O1 (racemic)
IC50 [1]: 1000 nM | IC50 [2]: 72 nM

SMILES: O=C1C[C@H]2O[C@@H](c3ccc(O)cc3)C3=C(C(=O)c4ccccc4C3=O)[C@H]2O1 (racemic)
IC50 [1]: 550 nM | IC50 [2]: 80 nM

SMILES: O=C1C[C@H]2OC3(CCCC3)C3=C(C(=O)c4ccccc4C3=O)[C@H]2O1 (racemic)
IC50 [1]: 1600 nM | IC50 [2]: 295 nM

The next lines start with results.

Activity [3]: inactive
SMILES: CCOC(=O)C[C@@H]1CC2=C(C(=O)c3ccccc3C2=O)[C@@H](C)O1

Activity [3]: inactive
SMILES: CCOC(=O)C[C@@H]1CC2=C(C(=O)c3ccccc3C2=O)[C@@H](c2cccs2)O1

IC50 [2]: 350 nM
SMILES: O=C1C[C@H]2O[C@@H](c3cccc(O)c3)C3=C(C(=O)c4ccccc4C3=O)[C@H]2O1 (racemic)
IC50 [1]: 1000 nM

IC50 [2]: 1440 nM
SMILES: CC1(C)O[C@@H]2CC(=O)O[C@@H]2C2=C1C(=O)c1ccccc1C2=O (racemic)
IC50 [1]: 230 nM

IC50 [2]: 850 nM
SMILES: Nc1ccc([C@@H]2O[C@@H]3CC(=O)O[C@@H]3C3=C2C(=O)c2ccccc2C3=O)cc1 (racemic)
IC50 [1]: 550 nM

IC50 [2]: 383 nM
SMILES: CCC[C@@H]1O[C@@H]2CC(=O)O[C@@H]2C2=C1C(=O)c1ccccc1C2=O (racemic)
IC50 [1]: 1300 nM
